In patent US20250368650A1, “5-(4-FLUOROPHENYL)-2,3-DIHYDRO-1H-IMIDAZO[1,2-A]IMIDAZOLE DERIVATIVES AS ALK INHIBITORS FOR THE TREATMENT OF FIBROSIS” (CHIESI FARMACEUTICI S.P.A., priority 2022, published 2025):
Counter-ions that a name gives are not always drawn.

Target: human ALK5 (Homo sapiens (Human), UniProt P36897)
Experiment: ADP-GLO Kinases assay, ALK5 enzymatic activity
Assay type: biochemical
Settings: purified recombinant human ALK5 2.6 nM, TGFβ1 peptide 94.5 μM, ATP 0.83 μM, 120 min, 25° C.; pIC50 converted to pKi using the Cheng-Prusoff equation
Description: The enzymatic activity of compounds of the present invention was monitored measuring the formation of ADP using the ADP-GLO Kinases assay. Following the incubation of the purified enzyme, a substrate and ATP, the produced ADP was converted into ATP, which in turn was converted into light by Ultra-Glo Luciferase. The luminescent signal positively correlated with ADP amount and kinase activity. Briefly, the kinase reaction was performed by incubating 2.6 nM of the purified, commercially available human ALK5 (recombinant TGF β1 N-term GST-tagged, 80-end), a final concentration of TGFβ1 peptide 94.5 μM (Promega, T36-58) and ultra-pure ATP (Promega V915B). The ATP concentration was set at the Km value (concentration of substrate which permits the enzyme to achieve half maximal velocity (Vmax)) of ALK5 (0.5 μM). Compound and ALK5 kinase were mixed and incubated for 15 min. Reactions were initiated by addition of ATP at a final concentration in the assay of 0.83 μM. After an incubation of 120 min, the reaction was stopped, and ADP production detected with ADP-Glo kit according to manufacturer's indications. All reaction and incubation steps were performed at 25° C. and the assays were performed in 384-well format and validated using a selection of reference compounds tested in 11-point concentration-response curve.
Results were expressed as pIC50 (negative logarithm of IC50) and subsequently converted to pKi (negative logarithm of […]) using the Cheng-Prusoff equation. The higher the value of pKi, the greater the inhibition of ALK5 activity.

Chain of human ALK5 (P36897 80-503 limits assumed): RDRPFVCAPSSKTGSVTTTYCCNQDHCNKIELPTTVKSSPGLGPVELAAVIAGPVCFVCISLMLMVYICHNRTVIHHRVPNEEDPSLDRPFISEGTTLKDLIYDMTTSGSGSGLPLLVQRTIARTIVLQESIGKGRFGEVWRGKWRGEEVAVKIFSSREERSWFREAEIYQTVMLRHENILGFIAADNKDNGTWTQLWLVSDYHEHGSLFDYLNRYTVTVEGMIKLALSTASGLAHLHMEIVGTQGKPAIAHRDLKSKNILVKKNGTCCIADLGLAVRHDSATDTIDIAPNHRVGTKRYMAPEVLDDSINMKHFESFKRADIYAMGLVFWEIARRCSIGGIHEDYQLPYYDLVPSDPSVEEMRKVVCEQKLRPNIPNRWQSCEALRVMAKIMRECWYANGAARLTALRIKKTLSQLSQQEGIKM

Row | SMILES | Ki | ALK5 pKi
1 | Cc1cccc(-c2nc3n(c2-c2ccc(F)c(NC(=O)CCN4CCN(CCO)CC4)c2)CCN3)n1 [Example 3, N-(2-fluoro-5-(6-(6-methylpyridin-2-yl)-2,3-dihydro-1H-imidazo[1,2-a]imidazol-5-yl)phenyl)-3-(4-(2-hydroxyethyl)piperazin-1-yl)propanamide] | 1.26 to 7.94 nM | –
2 | Cc1cccc(-c2nc3n(c2-c2ccc(F)c(NC(=O)CCN4CCN(CC(F)(F)F)CC4)c2)CCN3)n1 [Example 4, N-(2-fluoro-5-(6-(6-methylpyridin-2-yl)-2,3-dihydro-1H-imidazo[1,2-a]imidazol-5-yl)phenyl)-3-(4-(2,2,2-trifluoroethyl)piperazin-1-yl)propanamide] | 1.26 to 7.94 nM | –
3 | Cc1cccc(-c2nc3n(c2-c2ccc(F)c(NC(=O)CN(C)C)c2)CCN3)n1 [Example 5, 2-(Dimethylamino)-N-(2-fluoro-5-(6-(6-methylpyridin-2-yl)-2,3-dihydro-1H-imidazo[1,2-a]imidazol-5-yl)phenyl)acetamide] | 10 to 31.6 nM | –
4 | CN1CCN(CCC(=O)Nc2cc(-c3c(-c4cc(Cl)ccc4F)nc4n3CCN4)ccc2F)CC1 [Example 8, N-(5-(6-(5-chloro-2-fluorophenyl)-2,3-dihydro-1H-imidazo[1,2-a]imidazol-5-yl)-2-fluorophenyl)-3-(4-methylpiperazin-1-yl)propanamide] | 1.26 to 7.94 nM | –
5 | Cc1cccc(-c2nc3n(c2-c2ccc(F)c(NC(=O)CCN(C)C)c2)CCN3)n1 [Example 9, 3-(Dimethylamino)-N-(2-fluoro-5-(6-(6-methylpyridin-2-yl)-2,3-dihydro-1H-imidazo[1,2-a]imidazol-5-yl)phenyl)propanamide] | ≤ 1 nM | –
6 | O=C(CCN1CCCCC1)Nc1cc(-c2c(-c3cc(Cl)ccc3F)nc3n2CCN3)ccc1F [Example 10, N-(5-(6-(5-chloro-2-fluorophenyl)-2,3-dihydro-1H-imidazo[1,2-a]imidazol-5-yl)-2-fluorophenyl)-3-(piperidin-1-yl)propanamide] | ≤ 1 nM | –
7 | Cc1cccc(-c2nc3n(c2-c2ccc(F)c(NC(=O)CCC[N+]4(C)CCCCC4)c2)CCN3)n1 [Example 12, 1-(4-((2-Fluoro-5-(6-(6-methylpyridin-2-yl)-2,3-dihydro-1H-imidazo[1,2-a]imidazol-5-yl)phenyl)amino)-4-oxobutyl)-1-methylpiperidin-1-ium chloride hydrochloride] | 1.26 to 7.94 nM | –

More lines, now with the values ahead:

Row | Ki | ALK5 pKi | SMILES
8 | 1.26 to 7.94 nM | – | Cc1cccc(-c2nc3n(c2-c2ccc(F)c(NC(=O)CCN4CCN(C)CC4)c2)CCN3)n1 [Example 1, N-(2-fluoro-5-(6-(6-methylpyridin-2-yl)-2,3-dihydro-1H-imidazo[1,2-a]imidazol-5-yl)phenyl)-3-(4-methylpiperazin-1-yl)propanamide]
9 | – | ≥9.0 | Cc1cccc(-c2nc3n(c2-c2ccc(F)c(NC(=O)CCN4CCCCC4)c2)CCN3)n1 [Example 2, N-(2-fluoro-5-(6-(6-methylpyridin-2-yl)-2,3-dihydro-1H-imidazo[1,2-a]imidazol-5-yl)phenyl)-3-(piperidin-1-yl)propanamide]
10 | 10 to 31.6 nM | – | Cc1cccc(-c2nc3n(c2-c2ccc(F)c(NC(=O)CN4CCN(C)CC4)c2)CCN3)n1 [Example 6, N-(2-fluoro-5-(6-(6-methylpyridin-2-yl)-2,3-dihydro-1H-imidazo[1,2-a]imidazol-5-yl)phenyl)-2-(4-methylpiperazin-1-yl)acetamide]
11 | 1.26 to 7.94 nM | – | Cc1cccc(-c2nc3n(c2-c2ccc(F)c(NC(=O)CCCN4CCN(C)CC4)c2)CCN3)n1 [Example 7, N-(2-fluoro-5-(6-(6-methylpyridin-2-yl)-2,3-dihydro-1H-imidazo[1,2-a]imidazol-5-yl)phenyl)-4-(4-methylpiperazin-1-yl)butanamide]
12 | 1.26 to 7.94 nM | – | Cc1cccc(-c2nc3n(c2-c2ccc(F)c(NC(=O)CCCN4CCCCC4)c2)CCN3)n1 [Example 11, N-(2-fluoro-5-(6-(6-methylpyridin-2-yl)-2,3-dihydro-1H-imidazo[1,2-a]imidazol-5-yl)phenyl)-4-(piperidin-1-yl)butanamide]
13 | 10 to 31.6 nM | – | Cc1cccc(-c2nc3n(c2-c2ccc(F)c(NC4CCN(C(C)C)CC4)c2)CCN3)n1 [Example 13, N-(2-fluoro-5-(6-(6-methylpyridin-2-yl)-2,3-dihydro-1H-imidazo[1,2-a]imidazol-5-yl)phenyl)-1-isopropylpiperidin-4-amine]
14 | 1.26 to 7.94 nM | – | Cc1cccc(-c2nc3n(c2-c2ccc(F)c(NCC4CCN(C)CC4)c2)CCN3)n1 [Example 14, 2-Fluoro-N-((1-methylpiperidin-4-yl)methyl)-5-(6-(6-methylpyridin-2-yl)-2,3-dihydro-1H-imidazo[1,2-a]imidazol-5-yl)aniline]
